Experiment in all cases: Z'-LYTE kinase panel
Type in all cases: biochemical

The target of one test is T1, MAPKAPK5 (PRAK) (Homo sapiens, UniProt Q8IW41).
T1 construct: purchased ThermoFisher (SelectScreen, Z'-LYTE)
T1 sequence (Q8IW41 1-473): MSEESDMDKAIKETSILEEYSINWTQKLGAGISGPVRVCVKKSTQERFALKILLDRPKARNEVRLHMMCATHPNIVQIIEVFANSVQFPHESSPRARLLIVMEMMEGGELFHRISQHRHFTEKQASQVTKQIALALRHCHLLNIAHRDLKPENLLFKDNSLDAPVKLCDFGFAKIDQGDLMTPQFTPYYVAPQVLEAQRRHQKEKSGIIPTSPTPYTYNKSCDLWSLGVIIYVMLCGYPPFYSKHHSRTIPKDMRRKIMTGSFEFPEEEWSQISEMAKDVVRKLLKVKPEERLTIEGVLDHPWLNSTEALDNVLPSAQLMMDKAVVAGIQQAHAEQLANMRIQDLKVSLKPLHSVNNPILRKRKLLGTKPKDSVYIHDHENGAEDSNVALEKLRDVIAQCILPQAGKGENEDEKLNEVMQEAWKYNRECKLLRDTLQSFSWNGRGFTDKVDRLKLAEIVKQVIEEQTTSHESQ
Here is the method: (§1) Compounds 2, 3 and 5 were tested for activity against the 225 kinases in the ThermoFisher standard kinase panel. The standard Z′-LYTE assay protocol (ThermoFisher) was used to measure the percentage inhibition at 10 µM compound concentration (details are provided in the supporting information).

The next test has as its target T2, PRKG1 (Homo sapiens, UniProt Q13976).
T2 construct: purchased ThermoFisher (SelectScreen, Z'-LYTE)
T2 sequence (Q13976 1-671): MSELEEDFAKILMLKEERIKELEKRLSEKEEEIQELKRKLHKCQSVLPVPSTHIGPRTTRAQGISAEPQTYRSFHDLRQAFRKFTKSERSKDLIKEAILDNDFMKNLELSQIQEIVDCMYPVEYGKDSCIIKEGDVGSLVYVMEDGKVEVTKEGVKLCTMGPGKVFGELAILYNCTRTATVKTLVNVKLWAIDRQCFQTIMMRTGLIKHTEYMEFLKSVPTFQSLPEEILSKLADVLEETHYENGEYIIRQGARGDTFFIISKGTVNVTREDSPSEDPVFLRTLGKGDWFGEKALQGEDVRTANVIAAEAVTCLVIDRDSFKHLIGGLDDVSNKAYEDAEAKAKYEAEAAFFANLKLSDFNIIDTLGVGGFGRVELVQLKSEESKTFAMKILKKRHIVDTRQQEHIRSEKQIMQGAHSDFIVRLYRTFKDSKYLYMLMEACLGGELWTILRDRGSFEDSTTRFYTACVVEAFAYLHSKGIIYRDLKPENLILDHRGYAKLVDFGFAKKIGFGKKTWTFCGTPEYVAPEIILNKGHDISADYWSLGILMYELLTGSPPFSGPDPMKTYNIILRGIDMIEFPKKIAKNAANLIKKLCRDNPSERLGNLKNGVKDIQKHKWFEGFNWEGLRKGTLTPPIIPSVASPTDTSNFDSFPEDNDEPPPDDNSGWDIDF
The procedure:
as §1

In another test the target is T3, HIPK4 (Homo sapiens, UniProt Q8NE63).
T3 construct: purchased ThermoFisher (SelectScreen, Z'-LYTE)
T3 sequence (Q8NE63 1-616): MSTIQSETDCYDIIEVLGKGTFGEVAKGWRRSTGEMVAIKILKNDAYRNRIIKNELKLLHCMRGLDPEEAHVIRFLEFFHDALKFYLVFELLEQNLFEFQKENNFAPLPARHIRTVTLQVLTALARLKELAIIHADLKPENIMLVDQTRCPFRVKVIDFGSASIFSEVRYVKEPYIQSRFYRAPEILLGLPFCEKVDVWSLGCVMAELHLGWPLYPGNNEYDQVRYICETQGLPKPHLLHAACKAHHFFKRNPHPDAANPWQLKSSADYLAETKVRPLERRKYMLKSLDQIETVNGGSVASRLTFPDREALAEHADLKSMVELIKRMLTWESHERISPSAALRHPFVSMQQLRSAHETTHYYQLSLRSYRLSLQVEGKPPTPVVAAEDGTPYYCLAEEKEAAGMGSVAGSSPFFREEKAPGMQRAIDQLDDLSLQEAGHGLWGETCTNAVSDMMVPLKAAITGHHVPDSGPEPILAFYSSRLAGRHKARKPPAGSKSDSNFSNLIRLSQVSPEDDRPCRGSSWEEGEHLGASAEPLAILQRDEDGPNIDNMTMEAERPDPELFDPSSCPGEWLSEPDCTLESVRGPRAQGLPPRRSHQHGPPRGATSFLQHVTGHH
The procedure: as §1

For a further test, the target named is T4, SRC (Homo sapiens, UniProt P12931).
T4 construct: purchased ThermoFisher (SelectScreen, Z'-LYTE)
The procedure: as §1

The target of the next test is T5, TXK (Homo sapiens, UniProt P42681).
T5 construct: purchased ThermoFisher (SelectScreen, Z'-LYTE)
T5 sequence (P42681 1-527): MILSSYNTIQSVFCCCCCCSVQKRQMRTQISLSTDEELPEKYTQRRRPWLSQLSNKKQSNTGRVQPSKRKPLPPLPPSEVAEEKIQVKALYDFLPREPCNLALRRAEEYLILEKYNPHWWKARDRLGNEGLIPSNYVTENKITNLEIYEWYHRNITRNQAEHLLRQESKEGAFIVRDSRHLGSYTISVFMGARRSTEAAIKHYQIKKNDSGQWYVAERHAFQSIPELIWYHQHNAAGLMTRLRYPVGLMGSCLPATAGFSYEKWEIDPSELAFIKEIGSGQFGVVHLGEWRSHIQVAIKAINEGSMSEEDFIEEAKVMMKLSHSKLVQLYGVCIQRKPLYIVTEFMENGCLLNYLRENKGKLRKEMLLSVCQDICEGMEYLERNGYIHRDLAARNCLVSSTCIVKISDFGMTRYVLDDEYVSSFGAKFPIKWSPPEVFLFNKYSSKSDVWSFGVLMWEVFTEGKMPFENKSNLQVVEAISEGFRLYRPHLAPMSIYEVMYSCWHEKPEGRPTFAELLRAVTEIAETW
Here is the method: as §1

For another test, the target named is T6, CSNK1G3 (CK1 gamma 3) (Homo sapiens, UniProt Q9Y6M4).
T6 construct: purchased ThermoFisher (SelectScreen, Z'-LYTE)
T6 sequence (Q9Y6M4 whole entry): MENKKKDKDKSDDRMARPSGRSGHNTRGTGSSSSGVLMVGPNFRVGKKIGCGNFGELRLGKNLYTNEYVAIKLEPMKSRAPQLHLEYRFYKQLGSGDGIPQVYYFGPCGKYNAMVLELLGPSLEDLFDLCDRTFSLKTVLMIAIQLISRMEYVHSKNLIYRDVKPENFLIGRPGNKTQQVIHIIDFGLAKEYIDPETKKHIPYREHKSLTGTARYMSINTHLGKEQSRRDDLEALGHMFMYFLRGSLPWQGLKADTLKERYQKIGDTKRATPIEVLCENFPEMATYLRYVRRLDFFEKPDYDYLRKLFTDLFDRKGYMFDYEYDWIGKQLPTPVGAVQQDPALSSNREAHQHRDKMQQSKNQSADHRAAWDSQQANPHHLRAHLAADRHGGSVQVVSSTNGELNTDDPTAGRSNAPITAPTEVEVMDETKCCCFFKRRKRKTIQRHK
The procedure:
as §1

The next test concerns the target T7, RPS6KA2 (RSK3) (Homo sapiens, UniProt Q15349).
T7 construct: purchased ThermoFisher (SelectScreen, Z'-LYTE)
The procedure: as §1

Another test has as its target T8, PIM1 (Homo sapiens, UniProt P11309).
T8 construct: purchased ThermoFisher (SelectScreen, Z'-LYTE)
Here is the method:
as §1

The next test deals with T9, CSNK2A1 (CK2 alpha 1) (Homo sapiens, UniProt P68400).
T9 construct: purchased ThermoFisher (SelectScreen, Z'-LYTE)
T9 sequence (P68400 whole entry): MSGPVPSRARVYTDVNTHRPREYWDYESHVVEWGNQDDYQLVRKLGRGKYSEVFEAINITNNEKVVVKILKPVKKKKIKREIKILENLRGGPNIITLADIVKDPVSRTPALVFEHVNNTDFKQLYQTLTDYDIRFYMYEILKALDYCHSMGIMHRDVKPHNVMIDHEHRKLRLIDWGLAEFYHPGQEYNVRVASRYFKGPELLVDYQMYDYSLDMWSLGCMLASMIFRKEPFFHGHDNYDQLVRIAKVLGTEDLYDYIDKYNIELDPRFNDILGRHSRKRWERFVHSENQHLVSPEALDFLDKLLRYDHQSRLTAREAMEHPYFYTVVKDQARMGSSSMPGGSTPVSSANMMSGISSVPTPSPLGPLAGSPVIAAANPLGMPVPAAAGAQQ
The procedure:
as §1

The next test concerns the target T10, PRKCQ (PKC theta) (Homo sapiens, UniProt Q04759).
T10 construct: purchased ThermoFisher (SelectScreen, Z'-LYTE)
The procedure:
as §1

Another test concerns the target T11, AMPK A2/B1/G1 (Homo sapiens, UniProt P54646).
T11 construct: purchased ThermoFisher (SelectScreen, Z'-LYTE)
The procedure:
as §1

The source of these data is publication PMC4854315, “Discovery of a novel allosteric inhibitor-binding site in ERK5: comparison with the canonical kinase hinge ATP-binding site” (Acta Crystallographica. Section D, Structural Biology, 2016).

What is called inhibition is the drop in the measured response relative to a control, in per cent.

T8 sequence (P11309 whole entry): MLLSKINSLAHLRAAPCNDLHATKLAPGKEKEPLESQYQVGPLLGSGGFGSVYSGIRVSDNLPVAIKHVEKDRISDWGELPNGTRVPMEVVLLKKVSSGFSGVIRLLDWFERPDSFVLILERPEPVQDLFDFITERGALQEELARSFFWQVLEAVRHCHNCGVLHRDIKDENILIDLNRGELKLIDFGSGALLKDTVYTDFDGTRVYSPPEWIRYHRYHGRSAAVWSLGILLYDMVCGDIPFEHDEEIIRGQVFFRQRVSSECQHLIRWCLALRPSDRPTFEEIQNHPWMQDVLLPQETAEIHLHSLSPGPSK
T10 sequence (Q04759 whole entry): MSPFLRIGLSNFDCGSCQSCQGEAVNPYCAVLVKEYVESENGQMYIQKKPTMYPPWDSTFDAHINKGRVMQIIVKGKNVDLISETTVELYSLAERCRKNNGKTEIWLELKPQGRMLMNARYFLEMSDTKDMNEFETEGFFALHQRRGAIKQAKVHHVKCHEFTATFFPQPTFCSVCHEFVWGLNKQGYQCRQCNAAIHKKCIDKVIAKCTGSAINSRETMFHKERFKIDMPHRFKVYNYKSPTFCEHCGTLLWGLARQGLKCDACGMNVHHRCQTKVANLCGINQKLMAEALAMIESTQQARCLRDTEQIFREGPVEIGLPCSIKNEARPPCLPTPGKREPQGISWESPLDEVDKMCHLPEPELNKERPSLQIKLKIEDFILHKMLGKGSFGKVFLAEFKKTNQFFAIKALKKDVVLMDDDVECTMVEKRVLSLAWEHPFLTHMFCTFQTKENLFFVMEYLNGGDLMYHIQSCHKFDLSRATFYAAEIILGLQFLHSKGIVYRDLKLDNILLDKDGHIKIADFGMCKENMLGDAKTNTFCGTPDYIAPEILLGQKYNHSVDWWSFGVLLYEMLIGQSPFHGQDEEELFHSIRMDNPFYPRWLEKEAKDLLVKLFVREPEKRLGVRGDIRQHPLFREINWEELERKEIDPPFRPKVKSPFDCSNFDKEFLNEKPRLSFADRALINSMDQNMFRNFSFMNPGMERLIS
T7 sequence (Q15349 whole entry): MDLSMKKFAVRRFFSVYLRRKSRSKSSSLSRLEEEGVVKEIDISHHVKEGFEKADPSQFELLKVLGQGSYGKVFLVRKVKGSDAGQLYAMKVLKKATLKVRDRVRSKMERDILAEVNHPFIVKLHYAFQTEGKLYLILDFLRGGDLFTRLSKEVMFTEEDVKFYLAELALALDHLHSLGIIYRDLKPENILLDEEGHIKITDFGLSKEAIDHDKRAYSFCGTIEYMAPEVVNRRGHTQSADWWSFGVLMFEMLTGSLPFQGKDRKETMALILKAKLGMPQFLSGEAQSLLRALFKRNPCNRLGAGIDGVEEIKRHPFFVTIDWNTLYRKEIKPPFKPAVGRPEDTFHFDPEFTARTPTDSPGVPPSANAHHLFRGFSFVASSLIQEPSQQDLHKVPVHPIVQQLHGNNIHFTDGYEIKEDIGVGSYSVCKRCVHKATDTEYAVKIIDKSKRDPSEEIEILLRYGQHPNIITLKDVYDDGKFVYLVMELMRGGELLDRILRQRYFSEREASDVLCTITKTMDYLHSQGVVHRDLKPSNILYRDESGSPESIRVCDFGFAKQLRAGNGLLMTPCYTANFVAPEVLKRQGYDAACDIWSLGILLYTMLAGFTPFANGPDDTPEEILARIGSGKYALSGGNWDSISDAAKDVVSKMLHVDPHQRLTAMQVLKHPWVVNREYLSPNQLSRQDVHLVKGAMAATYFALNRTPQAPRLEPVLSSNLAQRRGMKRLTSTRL
T11 sequence (P54646 whole entry): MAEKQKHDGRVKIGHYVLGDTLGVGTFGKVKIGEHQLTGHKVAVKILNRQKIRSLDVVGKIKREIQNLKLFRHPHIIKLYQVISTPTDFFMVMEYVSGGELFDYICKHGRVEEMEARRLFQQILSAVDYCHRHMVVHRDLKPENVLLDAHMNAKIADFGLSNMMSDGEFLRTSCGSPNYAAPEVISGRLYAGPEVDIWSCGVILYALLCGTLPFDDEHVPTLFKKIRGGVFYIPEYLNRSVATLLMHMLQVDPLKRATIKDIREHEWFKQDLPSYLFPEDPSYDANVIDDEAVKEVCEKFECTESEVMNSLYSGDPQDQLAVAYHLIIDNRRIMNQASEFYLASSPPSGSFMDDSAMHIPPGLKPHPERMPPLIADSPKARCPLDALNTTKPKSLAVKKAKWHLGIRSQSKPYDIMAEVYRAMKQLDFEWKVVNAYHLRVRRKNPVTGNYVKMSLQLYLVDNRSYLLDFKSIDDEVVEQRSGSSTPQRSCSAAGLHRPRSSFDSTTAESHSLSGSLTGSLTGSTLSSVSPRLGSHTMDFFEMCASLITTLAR
T11 sequence (Q9Y478 whole entry partner): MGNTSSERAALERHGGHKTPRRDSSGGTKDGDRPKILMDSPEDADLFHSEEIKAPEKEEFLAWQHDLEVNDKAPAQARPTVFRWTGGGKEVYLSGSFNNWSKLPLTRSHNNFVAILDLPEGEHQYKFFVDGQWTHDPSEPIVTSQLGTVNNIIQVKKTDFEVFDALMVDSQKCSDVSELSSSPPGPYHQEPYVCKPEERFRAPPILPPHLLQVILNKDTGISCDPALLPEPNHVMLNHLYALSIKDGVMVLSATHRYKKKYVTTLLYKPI
T11 sequence (P54619 whole entry partner): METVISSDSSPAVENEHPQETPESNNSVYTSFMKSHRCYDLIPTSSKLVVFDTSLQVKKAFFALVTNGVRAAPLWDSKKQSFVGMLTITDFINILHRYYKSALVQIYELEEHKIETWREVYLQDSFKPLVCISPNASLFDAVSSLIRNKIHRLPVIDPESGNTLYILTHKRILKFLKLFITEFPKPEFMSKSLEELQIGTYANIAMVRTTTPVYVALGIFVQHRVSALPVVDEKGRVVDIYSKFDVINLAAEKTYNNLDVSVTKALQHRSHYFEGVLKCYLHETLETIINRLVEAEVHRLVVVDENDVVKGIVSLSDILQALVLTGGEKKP

In the case of “XMD8-92 [Compound 2, reference compound]”, the “MAPKAPK5 (PRAK) % Inhibition” value on MAPKAPK5 (PRAK) (10 µM compound, ATP Km app) came out at 11%. Also, the “PRKG1 % Inhibition” value on PRKG1 (10 µM compound, ATP Km app) is reported as 10%. The “HIPK4 % Inhibition” value at HIPK4 (10 µM compound, ATP Km app) is 10%. In addition, the “SRC % Inhibition” value at SRC (10 µM compound, ATP Km app) stood at 11%. Moreover, the “TXK % Inhibition” value on TXK (10 µM compound, ATP Km app) came to 73%. Further, on CSNK1G3 (CK1 gamma 3) (10 µM compound, ATP Km app), the “CSNK1G3 (CK1 gamma 3) % Inhibition” value amounted to 31%. In addition, at RPS6KA2 (RSK3) (10 µM compound, ATP Km app), the “RPS6KA2 (RSK3) % Inhibition” value stood at 23%. Moreover, the “PIM1 % Inhibition” value on PIM1 (10 µM compound, ATP Km app) is listed as 35%. On CSNK2A1 (CK2 alpha 1) (10 µM compound, ATP Km app), the “CSNK2A1 (CK2 alpha 1) % Inhibition” value worked out at 8%. For the same compound, the “PRKCQ (PKC theta) % Inhibition” value on PRKCQ (PKC theta) (10 µM compound, ATP Km app) is given as 52%. Also, the “AMPK A2/B1/G1 % Inhibition” value on AMPK A2/B1/G1 (10 µM compound, ATP Km app) is recorded as 58%.
Take `Cc1cc(Nc2nc(N)nn2C(=O)NC(C)C)ccc1Cl` [Compound 5]: the inhibition at 10 µM against MAPKAPK5 (PRAK) was -3.49%; on PRKG1, -4%; against HIPK4, 19%; on SRC, 26%; against TXK it was -9%; at CSNK1G3 (CK1 gamma 3) it was 17%. In addition, the inhibition at 10 µM was 70% against RPS6KA2 (RSK3); -1.79% at PIM1; 8% against CSNK2A1 (CK2 alpha 1); -8% against PRKCQ (PKC theta); 29% at AMPK A2/B1/G1.
For the compound `Cc1ncc(-c2nc(Nc3ccc(C(=O)NCCN4CCCCC4)cc3)ncc2F)n1C(C)C` [Compound 3], the inhibition at 10 µM against MAPKAPK5 (PRAK) stood at 45%; at PRKG1 it was 80%; on HIPK4, 92%; against SRC it was 79%; on TXK, 40%; on CSNK1G3 (CK1 gamma 3), 89%. In addition, the inhibition at 10 µM at RPS6KA2 (RSK3) came out at 90%; against PIM1, 65%; against CSNK2A1 (CK2 alpha 1), 40%; against PRKCQ (PKC theta), 80%; against AMPK A2/B1/G1, 94%.
